One series concerns HIV-1 tat protein. In words: direct filter binding assay of tat to TAR RNA (saturation binding, Scatchard analysis). The following applies: for Kd: direct filter binding, HIV-1 TAR from saturation binding/Scatchard plot, mutants estimated from half-maximal binding, read-out: Kd (dissociation constant of tat binding); for affinity of tat binding compared with wild type: gel retardation and filter binding assays (data not shown). Here is the method: The results shown graphically in FIG. 4 are from experiments in which binding reactions (500 ul) contained 40 nMolar^32 P uniformly radiolabelled TAR RNA at a specific activity of 100,000 Ci/mole; 0.5 ug calf thymus DNA; 0.2 ug yeast TRNA; 40 units RNAsin (Promega); 50mm Tris-HCl pH 7.9 and 20 mM KCl. Reaction mixtures were set up on ice and increasing amounts of HIV-1 tat protein were added and the reaction mixtures were filtered through prewashed nitrocellulose filters (Millipore 0.45 uM pore size). The filters were dried and counted by liquid scintillation counting. The fraction of radiolabeled RNA bound was plotted against HIV-1 tat concentration.
Binding was measured by a filter-binding assay as described below under "Method", using monomeric tat protein prepared by CNBr cleavage of a human growth hormone-tat fusion protein expressed in E. coli. Reactions for saturation binding contained labeled TAR RNA [SEQ ID NO: 1] or antisense TAR RNA [SEQ ID NO: 6] at 10 nm and between 0 to 300 nM purified tat protein. Antisense TAR RNA was used as a control, since antisense TAR is unable to form stable complexes with tat in gel-retardation assays (Dingwall et al., 1989).
The stoichiometry of the tat/TAR interaction was determined by varying the TAR RNA concentrations over a wide range, while keeping the tat protein concentration constant near the Kd. For this Scatchard analysis, the tat protein concentration was held constant at 40 nM and the RNA concentration was varied between 7nM and 320 nM. The total amount of labeled RNA was kept constant in the binding reactions, but the specific activity of the RNA was varied. […]
Tat protein was prepared either from beta-galactosidase-tat fusion proteins (6) or from human growth-hormone-tat fusion proteins (85) using an improved method. In brief, inclusion body pellets containing the fusion protein were solubilized in 7M GdHCl, 50 mM Tris-HCl pH8.0, 2 mM EDTA, 2mM DTT and the fusion protein was purified to near homogeneity by ion-exchange chromatography on Q-Sepharose and S-Sepharose (Pharmacia) in buffers containing […], 50 mM Tris-HCl pH8.0, 2mM EDTA, 2mM DTT. The cysteine residues were protected by disulphide-exchange with 20 mM 2-hydroxyethyldisulphide (86), and the protein was cleaved by cyanogen bromide (6). The basic tat protein was then separated from the acidic human growth hormone peptides by ion-exchange chromatography on Q-Sepharose and S-Sepharose in 6M Urea. The protecting groups were then removed from the protein by addition of 10 mM DTT and the protein refolded by stepwise dialysis against 6 m Urea, 5M Urea,3M Urea, 1M Urea and 0M Urea in a buffer containing 50 mM Tris-HCl pH8.0, 100 uM DTT, 10 uM ZnCl2 Tat protein refolded in this manner elutes as a monomer from Superose 12 columns (Pharmacia) and migrates as a single band on polyacrylamide gels. Protein prepared by both methods behaved comparably in binding assays.
A wide variety of parameters affecting the binding of tat protein to TAR RNA were studied and binding conditions were optimized. Binding of tat to TAR has a distinct pH optimum at pH 8.0, but good binding is observed between pH 7.5 and pH 8.5. Tat/TAR complexes are very sensitive to ionic strength. […] Addition of Zn^+2, Cd^+2, Ca^+2, Mg,^+2, Fe^+2 or Fe^+3 ions to the reaction mixtures […]. However, the binding reaction is sensitive to EDTA at greater than 0.1 mM EDTA. Complex formation is also somewhat temperature sensitive. Optimal binding is observed at 0°C. Between 15° C. and 30° C. there is a 30% reduction in complex formation. […]

Series [1] relates to tat-dependent promoter activity of viral LTR carrying the TAR sequence. In words: trans-activation CAT assay, test plasmids transfected into HeLa/C63/tat cells. Format: cell-based, HeLa/C63/tat (clone 9) cells. An excerpt:
If tat binding to TAR is necessary for trans-activation, then viral LTRs carrying TAR sequences with low affinities for tat should always have reduced tat-dependent promoter activity in vivo. Site-directed mutagenesis experiments on TAR have shown that trans-activation requires sequences in both the U-rich bulge (10, 11) and the loop sequence (12, 27, 28). These observations have now been extended, using TAR mutations with known affinities for tat in transfection experiments, the results of which are shown in FIG. 8. The experiments used either HeLa cells (FIG. 8a-d) or a constitutive producer of tat, HeLa/C63/tat cells (FIG. 8e-f).
The TAR sequences depicted in FIG. 3 [SEQ ID NO: 1-11] were introduced into a test plasmid, pD5-3-3, which carries a LTR and approximately 300 bases of 5' flanking sequences derived from the infectious proviral clone NL4 (29). The bacterial chloramphenicol acetyltransferase (CAT) gene and SV40 intron and terminator sequence from pSV2-CAT (30) was inserted downstream of TAR by cloning into the HindIII site at +77. Trans-activation was measured either by cotransfection of HeLa cells with the test plasmids and the tat expression plasmid pC63-4-1 (6) (panels a-d in FIG. 10), or by transfection of the test plasmids alone into HeLa/C63/tat (clone 9) cells (panels e-h).
In these experiments, cells were plated at a density of 3×10^5 in a T25 flask and transfected by the calcium phosphate method (31). Transfections in HeLa cells used 8.0 ug of test plasmid, 1.0 to 10 ug of pC63-4-1 plasmid and 10 ug of calf thymus carrier DNA. Transfections of the HeLa/C63/tat (clone 9) cells used 0.5 to 10 ug of test plasmid and 10 ug of calf thymus carrier DNA. The HeLa/C63/tat (clone 9) cells were prepared by infection of HeLa cells with helper-free amphotrophic C63-4-1 MoMuLV-tat virus. Following selection in 2mg/ml G418 individual clones were expanded and the expression of tat protein confirmed by immunoprecipitation with monoclonal antibodies to tat (6). Cell extracts were prepared at 48h post-transfection in 150 ul lysis buffer (0.2% NP40, 20 mM Tris pH 8.0, 4mM MgCl2), heat inactivated at 65° C. for 10 min and stored at -20° C. To ensure that CAT activity was measured in the linear range of the assay (30), at less than 50% conversion of chloramphenicol in its acetylated forms, for each transfection, three different aliquots containing from 5 to 70 ul extract were assayed for CAT activity. Reactions contained extract diluted with lysis buffer to a final volume of 70 ul, 10 ul AcCoA (2.5mg/ml in lysis buffer); 0.5 ul (14C) - chloramphenicol (60 mCi/m mol) and were incubated for 45 min at 37° C. Reaction products were extracted with ethylacetate, separated by thin layer chromatography on silica plates and bands were counted in scintillation fluid to calculate the chloramphenicol conversion efficiency per 10 ul of extract.

Several values for one entry are separate records, joined by “and”; a condition that tells them apart may be missing. Identical values can stand only once. Like-named read-outs stand apart in the source and are kept apart here.

With “HIV-1 TAR (UUU): full length HIV-1 TAR RNA of 59 residues prepared by transcription, wild type, UUU bulge (GGGUCUCUCUGGUUAGACCAGAUUUGAGCCUGGGAGCUCUCUGGCUAACUAGGGAACCC; unmodified RNA) [reference compound]”, the “stoichiometry v, moles of RNA bound per mole of protein” value with HIV-1 tat protein (Scatchard analysis, 40 nM tat, RNA 7-320 nM) is “approximately one”. Besides, the Kd with HIV-1 tat protein (listed as HIV-1 TAR RNA) was 12 nM; with HIV-1 tat protein (listed as TAR RNA) it was 12 nM; in the series with HIV-1 tat protein (listed as TAR) it was 11.8 nM and 12 nM; with HIV-1 tat protein, 12 nM.
On to “SSA: sense stem, antisense loop sequence (GGGUCUCUCUGGUUAGACCAGAUUUGAGCUCCCAGGCUCUCUGGCUAACUAGGGAACCC; chemistry not given here)”, for which the “affinity of tat binding compared with wild type” value with HIV-1 tat protein is given as “bind tat with wild-type affinities”. Also, in series [1], the “CAT expression” value was “no significant increase over basal levels of CAT expression”.
Take “G28 to C28: TAR point mutation expected to disrupt the top of the TAR stem/loop structure (GGGUCUCUCUGGUUAGACCAGAUUUGACCCUGGGAGCUCUCUGGCUAACUAGGGAACCC; chemistry not given here)”: the Kd was 100 nM in the series on HIV-1 tat protein (listed as SEQ ID NO: 10) and greater than 100 nM in the series with HIV-1 tat protein. In addition, in series [1], the “CAT expression” value is listed as “null phenotypes”.
“G to U (loop): TAR RNA in which residues 32-34 are changed to uridine (U) (GGGUCUCUCUGGUUAGACCAGAUUUGAGCCUUUUAGCUCUCUGGCUAACUAGGGAACCC; RNA, backbone not given here)”: the Kd in the series with HIV-1 tat protein was 25 nM. The “CAT expression” value in series [1] is given as “significant CAT activity observed at high plasmid concentrations”.
The corresponding values for “delta U (bulge): TAR RNA in which residues 23-25 are deleted (GGGUCUCUCUGGUUAGACCAGAGAGCCUGGGAGCUCUCUGGCUAACUAGGGAACCC; RNA, backbone not given here)” are greater than 70 nM and “null phenotypes”.
Take “ASS: anti-sense lower stem, sense upper stem and loop sequences (GGGUUCCCUAGUUAGACCAGAUUUGAGCCUGGGAGCUCUCUGGCUAACCAGAGAGACCC; chemistry not given here)”: the “affinity of tat binding compared with wild type” value with HIV-1 tat protein is reported as “bind tat with wild-type affinities”. Besides, the “CAT expression” value in series [1] was “wild-type expression levels”.
With “SAS: anti-sense upper stem flanked by sense lower stem and loop sequences (GGGUCUCUCUGGUUAGCCAGAGAGCCUGGGAGCUCAAAUCUGGUCUAACUAGGGAACCC; chemistry not given here)”, the “affinity of tat binding compared with wild type” value with HIV-1 tat protein is on record as “bind tat with significantly reduced affinities”. The “CAT expression” value in series [1] is “no significant increase over basal levels of CAT expression”.

Source of the values: US5821046A, “RNA oligonucleotides that bind HIV tat protein” (RiboTargets Holdings PLC, priority 1990, dated 1998).
